# Data taken from patent US20130171067A1, “[…]-99m COMPLEX AS A TOOL FOR THE IN VIVO DIAGNOSIS OF CANCEROUS TUMOURS” (PIERRE FABRE MEDICAMENT, priority 2010, published 2013).
# Counter-ions that a name gives are not always drawn.
# How the values were obtained:
# [1] = test system: B16/F10 mouse melanoma cells; assay: Tumour fixation, full-body scintigraphy of mice grafted with B16/F10 tumours (tumour-to-muscle ratio, spermine competition); format: in vivo; conditions: protocol of example 30, 1)
# Experimental: 10 days post-grafting, the radiolabelled probe was injected into the mice. Imaging was performed according to the protocol described in example 24 above.
# B16/F10 mouse melanoma cells (2.5.10^5 cells) were injected subcutaneously in the right back paw of male C57BL/6 mice. 10 days post-grafting, the complex having formula (II) (14.8 MBq) was injected into 18 mice, 400 μg of spermine having been previously injected into 8 of these mice. Full-body scintigraphic images were then produced 30 min and 2 hours post-injection. For this, the mice, anaesthetised with isoflurane gas, were imaged in the ventral decubitus position on a gamma-camera (γ Imager, BIOSPACE Mesures) with IRIS software (Ariès Nucléaire, France) with the following parameters: • Spectral window: 121-164 KeV • Acquisition time: 3 min • Grid: 256*256
# For all the images, a region of interest was plotted around the tumour and another of the same size was defined on the muscle of the contralateral paw to determine the tumour-to-muscle ratio.
# The study was conducted according to the protocol described in example 30, 1) above with other complexes having formula (II).
# [2] = test system: B16 cells; assay: In vitro incorporation in cells with spermine competition (gamma counter); format: cell-based, mouse; conditions: 30 minutes incubation, 0.2 μM complex, increasing concentration of spermine, FIG. 1
# Experimental: (§1) A549 and B16 cells were placed in culture in 24-well plates (2.10^5 cells/well). After 24 hours, the cells were incubated for 30 minutes with the complex having formula (II) at various concentrations or with 0.2 μM of complex having formula (II) optionally in the presence of an increasing concentration of spermine used for evaluating competition with the probe. After incubation, the plates were placed on ice and the cells were rinsed with cold 0.9% NaCl supplemented with 1 mM of spermidine. The cells received a treatment with trypsin. They were suspended in PBS. The activity of each well was measured using a gamma counter.
# [3] = test system: A549 cells; assay: as above; format: cell-based; conditions: 30 minutes incubation, 0.2 μM complex, increasing concentration of spermine, FIG. 1
# Experimental: as §1
# [4] = Plasmatic stability after intravenous injection (radio-HPLC of serum); format: in vivo, mice
# Experimental: 14.8 MBq of complex having formula (II) were injected intravenously to healthy male C57BL/6 mice. 30 minutes, 1 h, 2 h, 3 h and 5 hours post-injection, blood samples on heparin were taken from the retro-orbital cavity. These samples were then centrifuged for 5 minutes to collect at least 100 μL of serum. 50 enabled exclusion-diffusion radio-HPLC on a TSK SW2000 column+7.8*300 mm 5μ pre-column (Tosoh bioscience) with a mobile phase (flow rate of 1. ml/min at ambient temperature) consisting of 0.9% NaCl (100%). Macaque albumin labelled with ^99mTc was used to test the albumin retention time. The remaining 50 μL of serum was used to perform reverse-phase radio-HPLC, after protein denaturation with acetonitrile, on an XBridge C8 4.6*250 mm 5μ column (Waters, USA) with a mobile phase (flow rate of 1 ml/min at ambient temperature) consisting of water (55%), acetonitrile (45%) and TFA (0.1%).
# [5] = mouse, in vivo
# [6] = Biodistribution in healthy mice; conditions: C57BL/6 mice, intravenous, 30 min to 24 hours post-injection
smiles,measurement,setting,value
NCCCNCCCCNCCCNC(=O)c1ccc(N[NH][Tc]234([O]CC(CO)(CO)[N]2CC(=O)[O]3)[O]C(=O)C[N]4C(CO)(CO)CO)nc1,Observations,[1]; B16/F10 tumour in C57BL/6 mice,Tumour fixation
same,Effect of spermine on incorporation of the complex,[2],partially inhibits
same,Effect of spermine on incorporation of the complex,[3],partially inhibits
same,Proportion of injected complex eliminated,"[4]; at 30 minutes after intravenous injection, healthy male C57BL/6 mice",38%
same,Trans-chelation of Technetium on plasma albumin,"[4]; from 30 minutes after intravenous injection, exclusion-diffusion radio-HPLC",trans-chelated on the plasma albumin
same,Complex stability in plasma,"[4]; reverse-phase radio-HPLC of serum, 30 minutes to 5 hours post-injection",good complex stability
same,Risk of renal toxicity or side-effects due to dosimetry,[5],no risk of renal toxicity or side-effects due to dosimetry
same,Distribution in organs,[6],distributed quasi-homogeneously throughout the organs
same,Persistence of fixation,[6],only persists in the liver and kidneys
"NCCCCNCCCNC(=O)c1ccc(NN)nc1 (as salt: hydrochloride) [Example 6, N-[3-(4-amino-butylamino)-propyl]-6-hydrazino-nicotinamide]",melting point,,183 °C
"NCCCNCCCCNCCCNC(=O)c1ccc(NNC(=O)C(F)(F)F)nc1 (as salt: hydrochloride) [Example 14, N-{3-[4-(3-amino-propylamino)-butylamino]-propyl}-6-[N′-(2,2,2-trifluoro-acetyl)-hydrazino]-nicotinamide]",melting point,,237.5 °C
"NCCCCNC(=O)c1ccc(NN)nc1 [Example 3, N-(4-Amino-butyl)-6-hydrazino-nicotinamide]",Tumour-to-muscle ratio compared with the other compounds,[1],lower than with the other compounds
"NCCCCNCCCNC(=O)c1ccc(NN)nc1 [Example 6, N-[3-(4-amino-butylamino)-propyl]-6-hydrazino-nicotinamide]",Tumour-to-muscle ratio compared with the other compounds,[1],lower than with the other compounds
